Reference: patent publication US20230323420A1, “PERFUSION MEDIUM” (Boehringer Ingelheim International GmbH, priority 2017, published 2023)

Assays:
CHO cultures = details: cited from earlier work
[1] = test system: Chinese hamster ovary (CHO) DG44 cells expressing a recombinant monoclonal IgG1 antibody; assay: Deep well plate model of perfusion (small scale culture): viable cell density, viability, titer; format: cell-based
Method: Axygen 24 well pre-sterilized deep-well plates (Neta Scientific Inc, Hainesport, NJ) were used as a scale-down model of perfusion. A starting cell density of 20×10^6 cells/mL (3 mL per well) was targeted to simulate the high cell density growth phase of perfusion. Chinese hamster ovary (CHO) DG44 cells expressing a recombinant monoclonal IgG1 antibody were grown in proprietary chemically defined, serum-free perfusion media at 33° C. with 5% CO2, 80% humidity, and 200 rpm shaking speed in an incubator with a 5.0 cm orbit diameter for 4 or 8 days. A 0.1 mL sample was taken for cell count daily prior to media exchange. Medium exchanges were performed daily by centrifuging the plate at 1200 rpm for 5 minutes, removing 2 mL supernatant, and resuspending cells in 2.1 mL fresh, pre-warmed media at 37° C. (in early days, this equates to a ⅔ volume exchange, whereas in later days the cell pellet grows such that 2 mL is nearly the entire liquid volume, equating to a 1 VVD exchange). Supernatant was saved to perform process analytics.
Retinyl acetate was tested in concentrations ranging from 5 μM to 600 μM in proprietary chemically defined, serum-free perfusion medium with 230 μM or 3.1 mM ferric citrate. A 152 mM stock solution of retinyl acetate was prepared by dissolving 50 mg/mL retinyl acetate powder to prepare a 152 mM stock (Sigma-Aldrich; CAS 127-47-9) in absolute ethanol, or 75 mg/mL retinyl acetate for 228 mM stock, for each experimental run; after thorough mixing, the solutions were sterile-filtered with 0.22 μm Steriflips (EMD Millipore). This stock was diluted down further with perfusion medium to provide a working stock. Media aliquot concentrations were 30% higher than the targeted final concentration in each treatment to compensate for residual media left in the well and cell pellet volume. The media were prepared in proprietary chemically defined, serum-free media (either 230 μM or 3.1 mM Fe background) as shown in Table 2. Control condition had no retinyl acetate supplement; ethanol control added the solvent with no retinyl acetate at the level equivalent to the greatest amount for each experiment. These media aliquots were used in the daily media exchanges as described above.
Viability and viable cell density were measured by Vi-CELL Cell Counter using the Trypan blue dye exclusion method (Beckman Coulter Life Sciences, Indianapolis, IN). Titer, metabolites, and lactate dehydrogenase (LDH) levels were measured using a Cedex BioHT (Roche Diagnostics GmbH, Mannheim, Germany). These titer measurements had been previously verified to be in agreement with in house HPLC Protein A methods. Osmolality was measured with a 2020 Multi-Sample Micro Osmometer (Advanced Instruments, Inc, Norwood, MA) based on freezing point depression.
A small scale cell culture using CHO DG44 cells expressing a recombinant monoclonal IgG1 antibody was treated with ferric citrate and retinyl acetate at different concentrations to assess the effect on cell viability, essentially as described for the small scale culture in Example 1.

[2] = test system: Chinese hamster ovary (CHO) DG44 cells; assay: Cell cycle analysis of deep well culture (propidium iodide, flow cytometry); format: cell-based; details: 400 μM retinyl acetate, 3.1 mM ferric citrate, cultivation for 7 days; control cells 62.6%
Method: Cell cycle analysis was performed on days 1 and 7 of deep well culture. Cells were grown in medium containing 3.1 mM ferric citrate and 400 μM retinyl acetate or control medium and fixed on days 1 and 7 by a wash in cold PBS before suspension in 70% ethanol. Cells were stored at −20° C. until analysis. 1e5 cells per sample were stained with propidium iodide with RNase (BD Biosciences) for DNA content and analyzed by flow cytometry on a Guava easyCyte flow cytometer (EMD Millipore).

[3] = test system: CHO-DG44 cells expressing a recombinant monoclonal IgG1 antibody; assay: High density perfusion culture in 2 L bioreactors, 1.6 mM ferric citrate (Example 2); format: cell-based, Chinese hamster; details: for decrease of cell bleed rate: 1.6 mM ferric citrate background media, over 4 days (FIG. 5B)
Method: A high density perfusion culture of CHO-DG44 cells expressing a recombinant monoclonal IgG1 antibody was treated with high iron (Fe) and vitamin A (retinyl acetate) to assess the effect on cell proliferation, and by extension, the cell bleed. A bench-scale experiment was performed in three 2 L perfusion bioreactors with 0.2 μm PES hollow fibers (Spectrum Labs) on alternating tangential flow (ATF) at 0.8 L/min flow rate. Bioreactors were maintained at: 37° C., 60% dissolved oxygen, 348 RPM agitation, and a target pH of 7.0 (pH target was not always achieved). A CHO DG44 cell line expressing a monoclonal antibody was inoculated into the bioreactors at approximately 1e6 cells/mL in proprietary chemically defined, serum-free inoculation medium at a 1:4 dilution of conditioned to fresh inoculation media. This culture was grown in batch mode (no flow in or out) for 2 days, at which time perfusion was started with BI's perfusion media (manufactured by SAFC). […] During the growth phase (d0-d10 post-inoculation) there was no cell bleed, allowing the viable cell density (VCD) to reach desired level. On day 8, ferric citrate (Sigma-Aldrich; CAS 3522-50-7) was added to the perfusion medium at a concentration of 1.6 mM, targeting a pH of 6.9. Once optimal cell density was reached on day 10, cell bleed was initiated to maintain constant VCD (steady state). The calculation governing the cell bleed rate was based on maintaining the Incyte biomass capacitance probe value (Hamilton) which corresponded to the target VCD.
After steady state was established for several days, retinyl acetate (Sigma-Aldrich, CAS 127-47-9) was introduced to two of the bioreactors, with one bioreactor acting as control with no retinyl acetate (Table 4). Retinyl acetate was dissolved in absolute ethanol and sterile-filtered with a 0.2 μm filter to make a sterile stock solution of 152 mM before addition to media bags for final concentrations of 50 μM, 100 μM, 150 μM, or 200 μM retinyl acetate (in four respective bags). Each treatment bioreactor then received retinyl acetate at a first concentration between day 15 and 20 (50 μM or 100 μM) and at a second concentration between days 20-24 (150 or 200 μM) as shown in Table 4. On day 15 and 20 for each treatment, the bag of new treatment media was attached to the media inlet line of the bioreactors. […]
Samples were taken near-daily for: VCD and viability (Vi-Cell, Beckman-Coulter), osmolality (Advanced Instrument Inc), pH, CO2, and O2 (RapidLab 1240 BGA, Siemens), and metabolite readings (Cedex BioHT, Roche). […]

CHO-DG44 cells = assay: Cell cycle analysis of perfusion bioreactor culture (Example 2); format: cell-based, Chinese hamster; details: 150 μM and 200 μM retinyl acetate, 1.6 mM ferric citrate, compared to control, data not shown
Method: Samples were taken near-daily for: VCD and viability (Vi-Cell, Beckman-Coulter), osmolality (Advanced Instrument Inc), pH, CO2, and O2 (RapidLab 1240 BGA, Siemens), and metabolite readings (Cedex BioHT, Roche). DeltaV was used to control and Finesse TruBio software was used to record and monitor cell bleed, permeate, and media pump rates. Cell samples were taken throughout the experiment and stored at −20° C. in 70% EtOH after treatment with Accumax (Innovative Cell Technologies) for later cell cycle analysis using propidium iodide stain with RNase (BD Biosciences) on a Guava easyCyte flow cytometer (EMD Millipore).

[4] = test system: CHO DG44 cells expressing a recombinant monoclonal IgG1 antibody; assay: High density perfusion culture in bioreactors, 350 μM ferric citrate (Example 3); format: cell-based, Chinese hamster
Method: A high density perfusion culture of CHO DG44 cells expressing a recombinant monoclonal IgG1 antibody was treated with low iron (Fe) and vitamin A (retinyl acetate) to assess the effect on cell proliferation, and the cell bleed. A bench-scale experiment was performed essentially as described above for Example 2. During the growth phase (d0-d10 post-inoculation) there was no cell bleed, allowing the viable cell density (VCD) to reach desired level. On day 8, ferric citrate (Sigma-Aldrich; CAS 3522-50-7) was added to the perfusion media at a concentration of 350 μM. Once optimal cell density was reached on day 10, cell bleed was initiated to maintain constant VCD (steady state). The calculation governing the cell bleed rate was based on maintaining the Incyte biomass capacitance probe value (Hamilton company) which corresponded to the target VCD.
On day 25 day, retinyl acetate (Sigma-Aldrich, CAS 127-47-9) was introduced to one of the bioreactors, with one bioreactor acting as control with no retinyl acetate. Retinyl acetate was dissolved in absolute ethanol and sterile-filtered with a 0.2 μm filter to make a sterile stock solution of 152 mM before addition to media bags for final concentrations of 100 μM retinyl acetate. Retinyl acetate was then added to the bioreactor on day 25. The bag of new treatment media was attached to the media inlet line of the bioreactors and in order to ensure an instantaneous achievement of target retinyl acetate concentration within the vessels (as opposed to the gradual increase which would occur via introduction through the perfusion medium), a bolus addition of 1.3 mL retinyl acetate stock solution was added directly to the treatment bioreactor via injection through a sterile addition line. Samples were taken and analyzed as explained for Example 2.

[5] = test system: Chinese hamster ovary (CHO) DG44 cells expressing a recombinant monoclonal IgG1 antibody; assay: Deep well plate model of perfusion (small scale culture): viable cell density, viability, titer; format: cell-based; remark: listed apart in the source
[6] = 100 μM retinyl acetate, 350 μM ferric citrate, days 25 to 29 (FIG. 7)

For `CC1=C(/C=C/C(C)=C/C=C/C(C)=C/CO)C(C)(C)CCC1` [retinol], the cytotoxicity (CHO cultures; higher retinol concentrations (above 10 to 50 μM)) is listed as “cytotoxic” and the “growth and protein synthesis” value (CHO cultures; retinol 10 to 50 μM) is listed as “inhibitory effect on growth and protein synthesis”.
With `CC(=O)OC/C=C(C)/C=C/C=C(C)/C=C/C1=C(C)CCCC1(C)C` [retinyl acetate] the viable cell density ([1]; 5 μM to 20 μM retinyl acetate, 3.1 mM ferric citrate (FIG. 1A)) was “reduced the viable cell density in a dose-dependent manner”, the viable cell density ([1]; 40 μM to 100 μM retinyl acetate, 3.1 mM ferric citrate (FIG. 2A)) was “reduced the viable cell density in a dose-dependent manner” and the cell proliferation ([1]; 60 μM to 400 μM retinyl acetate, 3.1 mM ferric citrate, small scale studies) was “inhibit cell proliferation”. For the same molecule, the “growth / viable cell density” value ([1]; 200 μM and 400 μM retinyl acetate, 3.1 mM ferric citrate (FIG. 3A)) was “further inhibited growth resulting in a lower viable cell density”, the viable cell density ([1]; 600 μM retinyl acetate, 3.1 mM ferric citrate (FIG. 3A)) was “sharply declined from about day 2” and the “effect on viable cell density” value ([1]; 200-400 μM retinyl acetate, 230 μM ferric citrate, data not shown) was “present, but less pronounced”. The “decrease in growth rate” value ([1]; low ferric citrate (230 μM) versus high ferric citrate (3.1 mM), same retinyl acetate level) was “less pronounced in low ferric citrate”, the “cell specific productivity (qp)” value ([1]; retinyl acetate with 3.1 mM ferric citrate, data not shown) was “unaffected” and the viability ([1]; same retinyl acetate concentrations (200 μM), 3.1 mM ferric citrate (FIG. 8)) was “unaffected”. The “cells in the G0/G1 phase” value [2] was 86%, the bleed flow rate ([3]; 50 μM or 100 μM retinyl acetate, 1.6 mM ferric citrate, days 15 to 20, compared to control (FIG. 5A)) was “reduced in a dose-dependent manner” and the viability ([3]; 50 μM to 200 μM retinyl acetate, 1.6 mM ferric citrate (FIG. 4)) was “not affected”. For the same molecule, the “decrease of cell bleed rate” value ([3]; 150 μM vitamin A) was “approximately 45%”, the “decrease of cell bleed rate” value ([3]; 200 μM vitamin A) was “roughly 70%” and the “cell percentage in G0/G1 phase” value (CHO-DG44 cells) was “increase in cell percentage in G0/G1 phase”. For the same molecule, the cell bleed [4, 6] was “markedly decreased”, the specific growth rate [4, 6] was “markedly decreased” and the viability ([4]; 100 μM retinyl acetate, 350 μM ferric citrate, versus 350 μM ferric citrate alone (FIG. 6)) was “same high viability”. The “reduction of cell bleed rate” value ([4]; 100 μM vitamin A, 350 μM ferric citrate background media, over 5 days (FIG. 7A)) was “approximately 50%”, the “SGR (specific growth rate)” value ([5]; 2 μM retinyl acetate, data not shown) was “no effect on SGR was observed” and the specific growth rate ([5]; 350 μM ferric citrate and 200 μM retinyl acetate, data not shown) was “decrease in specific growth rate”. The viability ([5]; Chinese hamster, 5 days, 200 μM) was “negative effect on viability after 5 days”.
